The values below come from patent publication US10702537B2, “Devices and methods of treating methamphetamine addiction and medical and behavioral consequences of methamphetamine use and of HIV infection” (Board of Supervisors of Louisiana State University and …, priority 2015, dated 2020).

“Also recorded” adds a separate entry of the source. Read-outs that look alike come from different tables or passages of the source.

One data set concerns female Wistar rats. The data set is described as follows: methamphetamine drug discrimination. The class given is in vivo, rat. The settings on record: female Wistar rats trained to discriminate 1 mg/kg methamphetamine (IP) from saline; pretreatment; alprazolam 4 mg/kg IP at low doses 0.125 and 0.25 mg/kg methamphetamine; FIG. 2A. The method, then: (§1) Adult female Wistar rats were trained to discriminate 1 mg/kg methamphetamine (IP) from saline using food pellet reinforcement according to previously published procedures (Mantsch and Goeders, 1999, 1998). Pretreatment with alprazolam (4 mg/kg, IP) enhanced the methamphetamine discriminative stimulus at doses of 0.125 and 0.25 mg/kg methamphetamine. […] These observations have been confirmed using a conditioned place preference model as well, evidencing that benzodiazepines differentially modulate the rewarding and reinforcing properties of methamphetamine. […] Thus, this is an extraordinarily consistent pattern across three very different models of drug-related behaviors.

The test system of data set [1] is female rats. The data set is described as follows: cocaine drug discrimination. The class given is in vivo, rat. The settings on record: pretreatment, FIG. 2B.
A further data set deals with male rats. The data set is described as follows: methamphetamine self-administration in male rats. The class given is in vivo, rat. The settings on record: for low dose methamphetamine self-administration: alprazolam 4 mg/kg IP, very low doses of methamphetamine, FIG. 3, 5A; for antagonism of oxazepam's effect on methamphetamine self-administration: standard dose methamphetamine.

Data set [2] relates to rats. In words: methamphetamine drug-induced reinstatement (D-IR) study. The format is in vivo, rat. Particulars: FIG. 4.
The nature of data set [3]: cocaine-related behaviors. The settings on record: in vivo. The protocol: Benzodiazepines affect cocaine and methamphetamine-related behaviors differently—The inventors' laboratory has long been interested in the role for benzodiazepines in drug addiction.
as §1

The subject of the next data set is humans. Particulars: Lile et al., cited from earlier work.
The subject of data set [4] is drug-dependent individuals. Particulars: cited from earlier work.
In data set [5] the target is TSPO (Rattus norvegicus, UniProt P16257). The data set is described as follows: ex vivo homogenate binding, TSPO. Particulars: structure-activity relationships, confirmed by ex vivo homogenate binding in rat brain tissue.
TSPO (Rattus norvegicus, UniProt P16257), sequence (P16257 whole entry): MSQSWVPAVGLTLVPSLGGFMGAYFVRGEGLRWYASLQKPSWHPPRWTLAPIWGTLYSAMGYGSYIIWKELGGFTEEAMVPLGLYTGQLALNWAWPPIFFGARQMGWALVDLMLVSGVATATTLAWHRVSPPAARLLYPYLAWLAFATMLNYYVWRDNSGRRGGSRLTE
A further data set relates to GABAA receptor. The data set is described as follows: ex vivo homogenate binding, GABAA receptor. Particulars: structure-activity relationships, confirmed by ex vivo homogenate binding in rat brain tissue.
Data set [6] relates to female rats. The data set is described as follows: methamphetamine self-administration in female rats. The class given is in vivo, rat. The text has this: Turning to FIGS. 6 and 7, the inventors tested the TSPO compound Ro5-4864 in an animal model of methamphetamine self-administration in male and female rats. […] The inventors compared these effects to the effects of the benzodiazepine alprazolam. […] The inventors also show preliminary data with Ro7-9277 with female rats.

The subject of data set [7] is rats. Particulars: cited from earlier work.
For data set [8] the following is noted: humans, cited from earlier work.
For data set [9] the following is noted: rats, intraperitoneal injection; cited from earlier work.
Data set [10] has as its system TSPO. The settings on record: cited from earlier work.
A further data set has as its system TSPO mRNA. The settings on record: rats; 1.0 mg/kg IP twice per day for 2 weeks, withdrawn for 7 days; cited from earlier work.
Setting [11] is: male rats trained at 0.06 mg/kg/infusion, pretreatment.

`Cc1nnc2n1-c1ccc(Cl)cc1C(c1ccccc1)=NC2` [alprazolam, 8-chloro-1-methyl-5-phenyl-4H-(1,2,4)triazolo-1,4-benzodiazepine]: the “methamphetamine discriminative stimulus effects” value in the data set with female Wistar rats was “enhanced”. For the same compound, in the data set with female rats [1], the “cocaine discriminative stimulus effects” value is listed as “did not affect; also recorded: no effect”. Also, in the data set on male rats (setting [11]), the “low dose methamphetamine self-administration” value is given as “enhanced; also recorded: significant increases”. Further, the “low dose methamphetamine-induced reinstatement” value in the data set with rats [2] (low-dose priming injection of methamphetamine) was “enhanced; also recorded: potentiated”. Also, in data set [3], the cocaine-related behaviors entry is “decrease; also recorded: reduce”. Moreover, in the data set on humans (benzodiazepine given acutely at the same time as the stimulant), the “subjective effects of the methamphetamine high” value was “reduced”. In addition, in [4], the “desirability among benzodiazepines (abuse liability)” value is “one of the most desired”. Moreover, the “binding to the TSPO” value on TSPO [5] is “low affinity”. Also, in the data set with GABAA receptor, the “binding to the GABAA receptor” value is “binds selectively”.
Take `CCC(C)N(C)C(=O)c1cc2ccccc2c(-c2ccccc2Cl)n1` (stereo not shown) [PK11195]: the “antagonism of oxazepam's effect on methamphetamine self-administration” value in the data set on male rats (male rats, FIG. 5B) is “partially blocked”; in the data set on male rats (male rats, FIG. 5B, listed as PKII195), “blocked”.
As to `O=C1Nc2ccc(Cl)cc2C(c2ccccc2)=NC1O` (stereo not shown) [oxazepam, 7-chloro-1,3-dihydro-3-hydroxy-5-phenyl-2H-1,4-benzodiazepin-2-one], in the data set with female Wistar rats, the “methamphetamine discriminative stimulus effects” value is reported as “dose-dependently decreased”. In addition, the “cocaine discriminative stimulus effects” value in the data set on female rats [1] is “dose-dependently decreased”. Besides, the “low dose methamphetamine self-administration” value in the data set with male rats (setting [11]) is recorded as “no effect”. Besides, the “methamphetamine self-administration across all doses tested” value with male rats (male rats trained at 0.06 mg/kg/infusion, pretreatment, FIG. 3) is given as “decreased; also recorded: significant decreases”. Further, the “standard dose methamphetamine self-administration” value in the data set on male rats (male rats, FIG. 5B) is recorded as “decreased”. Further, the methamphetamine-induced reinstatement entry with rats [2] (all doses tested) is “decreased”. Moreover, the cocaine-related behaviors entry in [3] was “decrease; also recorded: reduce”. Besides, the “subjective effects of d-amphetamine” value with humans (benzodiazepine given acutely at the same time as amphetamine) was “no significant effect”. The “desirability among benzodiazepines (abuse liability)” value in [4] is recorded as “one of the least desirable”. The “binding to the TSPO” value at TSPO [5] was “binds”. Further, in the data set on GABAA receptor, the “binding to the GABAA receptor” value is “binds”.
Regarding `CN1C(=O)CN=C(c2ccc(Cl)cc2)c2cc(Cl)ccc21` [Ro5-4864, 4′,7-Dichloro-1,3-dihydro-1-methyl-5-phenyl-2H-1,4-benzodiazepin-2-one], the methamphetamine self-administration entry with male rats (male rats, FIG. 6) is “dose-related decrease”; in the data set on female rats [6] (female rats, FIG. 7), “dose-related decrease”. Also, the “sensitivity of female rats compared to male rats to the effect on methamphetamine self-administration” value in the data set on female rats [6] (FIG. 7 versus FIG. 6) is “significantly more sensitive”.
In the case of `CC(=O)[C@H]1CC[C@H]2[C@@H]3CC[C@H]4C[C@H](O)CC[C@]4(C)[C@H]3CC[C@]12C` [Allopregnanolone], the cocaine-related responding result in the data set on rats [7] (both genders) is given as “decrease”. The methamphetamine-related responding result in the data set on rats [7] (female rats) is recorded as “decrease”.
`CCOC(=O)c1ncn2c1CN(C)C(=O)c1cc(F)ccc1-2` [flumazenil]: the “antagonism of alprazolam's effect on low-dose methamphetamine self-administration” value in the data set on male rats (antagonist administered 30 minutes prior to alprazolam, FIG. 5A) is listed as “inhibited; also recorded: blocked”. For the same compound, the “antagonism of oxazepam's effect on methamphetamine self-administration” value in the data set with male rats (male rats, FIG. 5B) is recorded as “partially blocked”.
As to `CN[C@@H](C)Cc1ccccc1` [methamphetamine], the “Tmax of methamphetamine in blood” value in data set [8] (intranasal administration) was 2.82 ± 0.13 h; in data set [8] (intravenously administered) it was 0.1 ± 0.183 h; in data set [8] (oral, range 180-300 min), 3.6 h; in data set [8] (smoked) it was 2.5 ± 0.5 h. Also, in data set [9], the Tmax of methamphetamine was 7.5 ± 2.8 min. Further, in the data set with TSPO [10] (self-administration of methamphetamine 0.3 mg/kg/inf), the TSPO binding entry was “enhances”. Also, in the data set on TSPO [10] (subchronic repeated doses 4×10 mg/kg SC every two hours, within 72 hours), the “TSPO binding in the striatum, cerebellum and hippocampus” value is “increase”. Further, in the data set on TSPO mRNA, the “TSPO mRNA” value was “enhances”.
